Source: ChEMBL document CHEMBL1201862, “PubChem BioAssay data set” (2004)
Calls of active or inactive are those of the source. Cut-off read from the data, not from the text of the source: actives have a measured IC50 and inactives only a lower limit.

Molecular target: Envelope glycoprotein gp160 (Human immunodeficiency virus 1, UniProt Q6QLK5)
Experiment: inhibitors of HIV fusion peptide binding, primary screen, biochemical, uHTS, fluorescence dequenching (AID 1986)

Envelope glycoprotein gp160, sequence (Q6QLK5 whole entry, the tested form may be a part): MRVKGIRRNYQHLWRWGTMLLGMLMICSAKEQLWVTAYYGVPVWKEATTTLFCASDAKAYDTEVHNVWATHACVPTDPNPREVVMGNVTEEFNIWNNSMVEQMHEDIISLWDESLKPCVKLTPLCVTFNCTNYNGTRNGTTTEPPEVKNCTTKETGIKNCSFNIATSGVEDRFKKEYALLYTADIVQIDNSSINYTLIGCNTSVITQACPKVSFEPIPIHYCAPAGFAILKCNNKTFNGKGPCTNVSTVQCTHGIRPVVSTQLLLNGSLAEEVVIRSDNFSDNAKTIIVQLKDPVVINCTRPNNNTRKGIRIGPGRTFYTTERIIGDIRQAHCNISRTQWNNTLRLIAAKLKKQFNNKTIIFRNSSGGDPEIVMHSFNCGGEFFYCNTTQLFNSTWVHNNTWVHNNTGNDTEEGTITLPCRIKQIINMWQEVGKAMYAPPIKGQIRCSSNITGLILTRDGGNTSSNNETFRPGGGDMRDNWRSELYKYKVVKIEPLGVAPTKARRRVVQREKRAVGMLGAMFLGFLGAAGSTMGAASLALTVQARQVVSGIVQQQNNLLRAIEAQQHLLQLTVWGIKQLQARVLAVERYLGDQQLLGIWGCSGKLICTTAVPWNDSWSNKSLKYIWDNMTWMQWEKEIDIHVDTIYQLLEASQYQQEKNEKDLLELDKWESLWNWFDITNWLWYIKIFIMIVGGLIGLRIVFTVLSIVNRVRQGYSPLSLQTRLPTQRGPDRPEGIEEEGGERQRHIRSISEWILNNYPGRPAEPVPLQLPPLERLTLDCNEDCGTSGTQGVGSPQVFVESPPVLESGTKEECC

Row | Structure (SMILES) | IC50
1 | N#Cc1c(-c2ccccc2)nc(SCc2ccc(Cl)cc2)[nH]c1=O | 22.5 µM (active)
2 | COc1ccc(/C=C2/SC(=O)N(CCCCCC(=O)Nc3ccccc3C(=O)O)C2=S)cc1 | 18 µM (active)
3 | COc1cc(/C=N/Nc2ccc(Cl)c(C(=O)O)c2)ccc1OC(=O)c1ccccc1F | 26.2 µM (active)
